Source: US20250195513A1, “DEGRADATION OF IRAK4 BY CONJUGATION OF IRAK4 INHIBITORS WITH E3 LIGASE LIGAND AND METHODS OF USE” (BeiGene, Ltd., priority 2022, published 2025)

Tests used:
Type in all cases: cell-based
[1] = molecular target: T1, IRAK4 (Homo sapiens, UniProt Q9NWZ3); assay: IRAK4 Degradation Assay (Karpas299, HTRF/TR-FRET); conditions: Karpas-299 cells; for Dmax: maximum percentage of degradation
T1 construct: endogenous in cells; host or cells: Karpas299
T1 sequence (Q9NWZ3 1-460): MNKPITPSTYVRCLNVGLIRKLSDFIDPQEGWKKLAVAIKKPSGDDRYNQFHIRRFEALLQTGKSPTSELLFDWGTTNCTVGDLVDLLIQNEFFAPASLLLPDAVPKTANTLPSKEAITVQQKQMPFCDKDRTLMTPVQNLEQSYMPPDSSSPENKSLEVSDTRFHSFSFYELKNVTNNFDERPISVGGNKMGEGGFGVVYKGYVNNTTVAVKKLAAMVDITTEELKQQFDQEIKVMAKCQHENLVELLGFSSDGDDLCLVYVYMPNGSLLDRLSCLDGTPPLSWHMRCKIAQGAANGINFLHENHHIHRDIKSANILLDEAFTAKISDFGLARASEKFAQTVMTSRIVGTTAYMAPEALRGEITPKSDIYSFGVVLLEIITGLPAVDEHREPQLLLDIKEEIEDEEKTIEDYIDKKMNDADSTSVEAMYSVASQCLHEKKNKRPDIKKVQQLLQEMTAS
In short: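 Karpas299 cells at 0.2 million per well were exposed to serially diluted compounds for 24 h or 5 h, then lysed. IRAK4 remaining in lysates was quantified by HTRF (665/620 nm) after overnight antibody incubation at room temperature. Percent degradation was fitted to a four-parameter curve to give IC50 (DC50).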

[2] = molecular target: T1, IRAK4; assay: IRAK4 Degradation Assay with Human Serum (Karpas299, HTRF/TR-FRET); conditions: Karpas-299 in human serum, 24 hrs treatment; for DC50: read-out: IRAK4 degradtion with human serum assay DC50; for Dmax: read-out: IRAK4 degradtion with human serum assay Dmax (%)
In short: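 Karpas299 cells in human AB serum (0.2 million/well) treated with serial compound dilutions for 24 h. After lysis, IRAK4 quantified by HTRF (overnight antibody incubation at room temperature, 665/620 nm read). Degradation percentage fitted to four-parameter curve to give DC50.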

[3] = system: TNF-α production in THP-1 cells; assay: TNF-α Production Assay in THP-1 Cells (LPS stimulated); conditions: Homo sapiens, THP-1, 24 h; for Emax: maximum inhibition, read-out: TNF-α (THP-1) 24 h IMax
Protocol: THP-1 cells maintained in RPMI 1640 medium (Thermo Scientific) supplemented with 10% FBS (Thermo Scientific), 100 units/mL penicillin and 0.1 mg/mL streptomycin (Thermo Scientific) were seeded into 96-well plates at the density of 0.2 million cells per well and then treated with compounds for 24 h. Lipopolysaccharide was subsequently added at the final concentration of 1 μg/mL for 24 h. Culture supernatant was collected for measurement of TNF-α concentration by a TR-FRET-based method (Degorce, François, et al. Current chemical genomics. 2009, 3: 22) as described by the manufacturer manual (Cisbio). FRET signals were measured using a PHERAstar FSX reader (BMG Labtech).

[4] = 24 h treatment, read-out: IRAK4 in Karpas-299 (24 h) Dmax (%)
[5] = 24 h treatment, read-out: IRAK4 in Karpas-299 (24 h) DC50
[6] = 5 h treatment, read-out: IRAK4 in Karpas-299 (5 h) Dmax (%)
[7] = 5 h treatment, read-out: IRAK4 in Karpas-299 (5 h) DC50

SMILES | Dmax [1, 4] [%] | DC50 [1, 5] [nM] | DC50 [2] [nM] | Dmax [2] [%] | IC50 [3] [nM] | Dmax [1, 6] [%] | DC50 [1, 7] [nM] | Emax [3] [%]
COc1cc(N2CC(C(=O)N3CCN([C@H]4CC[C@H](n5cc6cc(NC(=O)c7ccc8cc(C#N)cnn78)c7c(c6n5)OCO7)CC4)CC3)C2)ccc1[C@H]1CCC(=O)NC1=O [Example 356] | 98 | 1.3 | 14 | 102 | 12 | – | – | 90
CC(C)(O)c1cc2nn([C@H]3CC[C@H](N4CCN(C5CCN(c6ccc(C7CCC(=O)NC7=O)cc6)CC5)CC4)CC3)cc2cc1NC(=O)c1ccc2cc(C#N)cnn12 (stereo partly shown) [Example 195, 3-cyano-N-(2-((1r,4r)-4-(4-(1-(4-(2,6-dioxopiperidin-3-yl)phenyl)piperidin-4-yl)piperazin-1-yl)cyclohexyl)-6-(2-hydroxypropan-2-yl)-2H-indazol-5-yl)pyrrolo[1,2-b]pyridazine-7-carboxamide] | 98 | 2.8 | 10 | 98 | 118 | 97 | 13 | 72
C[C@@H]1CN([C@H]2CC[C@H](n3cc4cc(NC(=O)c5ccc6cc(C#N)cnn56)c(C(C)(C)O)cc4n3)CC2)CCN1C(=O)C1CN(c2cc(F)c([C@H]3CCC(=O)NC3=O)c(F)c2)C1 [Example 309, 3-cyano-N-(2-((1R,4r)-4-((R)-4-(1-(4-((R)-2,6-dioxopiperidin-3-yl)-3,5-difluorophenyl)azetidine-3-carbonyl)-3-methylpiperazin-1-yl)cyclohexyl)-6-(2-hydroxypropan-2-yl)-2H-indazol-5-yl)pyrrolo[1,2-b]pyridazine-7-carboxamide] | 97 | 0.4 | 14 | 100 | 31 | – | – | 90
COC[C@@H]1CN([C@H]2CC[C@H](n3cc4cc(NC(=O)c5ccc6cc(C#N)cnn56)c(C(C)(C)O)cc4n3)CC2)CCN1C1CCN(c2cc(F)c([C@H]3CCC(=O)NC3=O)c(F)c2)CC1 [Example 319] | 98 | 2 | 6.7 | 98 | 39 | 95 | 1.2 | 90

Second part, led by results:

Dmax [1, 4] [%] | DC50 [1, 5] [nM] | DC50 [2] [nM] | Dmax [2] [%] | IC50 [3] [nM] | Dmax [1, 6] [%] | DC50 [1, 7] [nM] | SMILES | Emax [3] [%]
99 | 0.3 | 9.8 | 103 | 13 | – | – | C[C@@H]1CN(C(=O)C2CN(c3cc(F)c([C@H]4CCC(=O)NC4=O)c(F)c3)C2)CCN1[C@H]1CC[C@H](n2cc3cc(NC(=O)c4ccc5cc(C#N)cnn45)c(C(C)(C)O)cc3n2)CC1 [Example 298, 3-cyano-N-(2-((1R,4r)-4-((R)-4-(1-(4-((R)-2,6-dioxopiperidin-3-yl)-3,5-difluorophenyl)azetidine-3-carbonyl)-2-methylpiperazin-1-yl)cyclohexyl)-6-(2-hydroxypropan-2-yl)-2H-indazol-5-yl)pyrrolo[1,2-b]pyridazine-7-carboxamide] | 93
98 | 0.8 | 8.8 | 96 | 38 | – | – | C[C@@H]1CN(C2CN(c3cc(F)c([C@H]4CCC(=O)NC4=O)c(F)c3)C2)CCN1[C@H]1CC[C@H](n2cc3cc(NC(=O)c4ccc5cc(C#N)cnn45)c(C(C)(C)O)cc3n2)CC1 [Example 302, 3-cyano-N-(2-((1R,4r)-4-((R)-4-(1-(4-((R)-2,6-dioxopiperidin-3-yl)-3,5-difluorophenyl)azetidin-3-yl)-2-methylpiperazin-1-yl)cyclohexyl)-6-(2-hydroxypropan-2-yl)-2H-indazol-5-yl)pyrrolo[1,2-b]pyridazine-7-carboxamide] | 84
